Test results from patent US10351530B2, “Arylcyclohexyl pyrazoles as NRF2 regulators” (GlaxoSmithKline Intellectual Property Development Limited, priority 2015, dated 2019).

Key:
NRF2/Keap1 = biological target: T1, NRF2/Keap1 (Homo sapiens, UniProt Q14145); assay: NRF2-Keap1 TR-FRET Assay (full length NRF2 and full length Keap1); type: binding; settings: 25 nM Keap1-FlagHis, 50 nM biotin-NRF2 added
T1 construct: full length NRF2 protein and full length Keap1 protein (Keap1 exists a dimer) are used
T1 sequence (Q14145 whole entry): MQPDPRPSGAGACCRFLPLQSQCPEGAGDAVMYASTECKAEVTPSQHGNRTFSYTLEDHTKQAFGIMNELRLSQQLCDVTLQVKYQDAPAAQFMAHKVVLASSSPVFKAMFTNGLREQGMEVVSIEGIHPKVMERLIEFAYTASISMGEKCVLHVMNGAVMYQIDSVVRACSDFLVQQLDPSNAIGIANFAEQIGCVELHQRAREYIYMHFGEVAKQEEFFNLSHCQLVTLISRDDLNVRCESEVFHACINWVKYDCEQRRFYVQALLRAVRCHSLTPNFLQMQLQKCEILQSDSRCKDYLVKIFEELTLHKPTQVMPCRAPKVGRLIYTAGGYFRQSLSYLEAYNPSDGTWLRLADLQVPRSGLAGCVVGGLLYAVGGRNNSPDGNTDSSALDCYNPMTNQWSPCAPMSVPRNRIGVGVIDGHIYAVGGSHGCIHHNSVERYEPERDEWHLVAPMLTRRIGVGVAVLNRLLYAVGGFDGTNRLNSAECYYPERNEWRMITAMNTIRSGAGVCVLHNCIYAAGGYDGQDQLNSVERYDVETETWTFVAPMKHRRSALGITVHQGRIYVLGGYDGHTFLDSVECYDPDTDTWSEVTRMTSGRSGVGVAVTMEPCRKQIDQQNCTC
Excerpt: In the NRF2-Keap1 TR-FRET (time-resolved fluorescence resonance energy transfer) assay, full length NRF2 protein and full length Keap1 protein (Keap1 exists a dimer) are used. The assay detects the ability of compound to displace the binding of FlagHis-tagged Keap1 with biotinylated, Avi-tagged NRF2 protein. Biotin-NRF2 binds to streptavidin-europium (a component of the detection mix) and Keap1-FlagHis is recognized by anti-Flag APC (allophycocyanin) antibody (also a component of the detection mix). If binding occurs between the two proteins, there will be an energy transfer from the Eu+3 (donor) at 615 nm to the APC (acceptor) at 665 nm. A potential Keap1 inhibitor will cause a reduction in the TR-FRET signal by interfering with the binding of Keap1 to NRF2.
One hundred nanoliters of 100× compound dose response curves (serial 3-fold dilutions) in DMSO are stamped using an Echo liquid handling system (Labcyte) into 384-well, low volume, black assay plates (Greiner, #784076), with DMSO in columns 6 and 18. The top concentration of compound is located in columns 1 and 13. All reagents are diluted in assay buffer (50 mM Tris, pH 8.0, 5 mM MgCl2, 100 mM NaCl, 0.005% BSA, 1 mM DTT, and 2 mM CHAPS). The BSA, DTT, and CHAPS are added to the assay buffer on the day of assay. Using a Multidrop Combi (Thermo Electron Corporation) equipped with a metal tip dispenser, 5 ul of 25 nM Keap1-FlagHis protein is added to all wells of the compound plate, with the exception of the wells in column 18. Wells in column 18 receive 5 ul of assay buffer instead. Plates are centrifuged at 500 rpm for 1 minute, covered with a plate lid, and incubated at 37° C. for 2.25 hours. Plates are then removed from the incubator and allowed to cool to RT for 15 minutes. Five microliters of 50 nM biotin-NRF2 protein is then added to all wells of the plates and the plates are spun at 500 rpm for 1 minute, followed by incubating at 4° C. for 1.25 hours. The plates are then allowed to warm to RT for 15 minutes, followed by the addition of 10 ul of detection mix (1 nM Streptavidin Eu+ W1024 and 5 ug/ml mouse anti-DYKDDDDK IgG conjugated to SureLight APC antibody; both from Columbia Biosciences) to all wells. Plates are spun at 500 rpm for 1 minute, incubated for 1 hour at RT, and read on an Envision plate reader using a 320 nm excitation filter and 615 nm and 665 nm emission filters. Compound response (% inhibition) and potency (pIC50) are calculated based on the ratio of the two emissions (665 nm/615 nm) and then the transformed data is normalized against controls in the assay (control 1=1% DMSO in the presence of NRF2 and Keap1 protein and control 2=1% DMSO in the absence of protein). Data analysis is handled using the software package Abase XE (Surrey, United Kingdom). The % inhibition values are calculated from the ratio (transformed) data by the equation: 100−(100*(compound response-average control 2)/(average control 1−average control 2)).
For calculation of pIC50s, Abase XE uses a four parameter equation.

[1] = system: NQO1 specific enzyme activity in BEAS-2B cells; assay: BEAS-2B NQO1 MTT Assay; type: cell-based; settings: NQO1 specific activity induction
Excerpt: NAD(P)H:quinone oxidoreductase 1 (NQO1), also called DT diaphorase, is a homodimeric FAD-containing enzyme that catalyzes obligatory NAD(P)H-dependent two-electron reductions of quinones and protects cells against the toxic and neoplastic effects of free radicals and reactive oxygen species arising from one-electron reductions. The transcription of NQO1 is finely regulated by NRF2, and thus NQO1 activity is a good marker for NRF2 activation. On day one, frozen BEAS-2B cells (ATCC) are thawed in a water bath, counted, and re-suspended at a concentration of 250,000 cells/mL. Fifty microliters of cells are plated in 384 well black clear-bottomed plates. Plates are incubated at 37° C., 5% CO2 overnight. On day two, plates are centrifuged and 50 nL of compound or controls are added to the cells. Plates are then incubated at 37° C., 5% CO2 for 48 hours. On day four, medium is aspirated from the plate and crude cell lysates are made by adding 13 uL of 1× Cell Signaling Technologies lysis buffer with 1 Complete, Mini, EDTA-free Protease Inhibitor Tablet (Roche) for each 10 mL of lysis buffer. After lysis plates are incubated for 20 minutes at room temperature. Two microliters of lysate are removed for use in Cell Titer Glo assay (Promega) and MTT cocktail is prepared (Prochaska et. al. 1998) for measurement of NQO1 activity. Fifty microliters of MTT cocktail is added to each well, plate is centrifuged, and analyzed on an Envision plate reader (Perkin Elmer) using Absorbance 570 nm label for 30 minutes. Product formation is measured kinetically and the pEC50 of NQO1 specific activity induction is calculated by plotting the change in absorbance (Delta OD/min) versus the log of compound concentration followed by 3-parameter fitting.

Keap1/NRF2 = biological target: T2, Keap1/NRF2 (Homo sapiens, UniProt Q14145); assay: NRF2-Keap1 FP Assay (Kelch domain (321-609) of Keap1, TAMRA-labeled NRF2 ETGE peptide); type: binding; settings: Keap1 (321-609) 20 nM, Tamra labeled peptide 8 nM
T2 construct: Keap1 (321-609) is diluted to 40 nM (2×) in 1× assay buffer
T2 sequence (Q14145 321-609): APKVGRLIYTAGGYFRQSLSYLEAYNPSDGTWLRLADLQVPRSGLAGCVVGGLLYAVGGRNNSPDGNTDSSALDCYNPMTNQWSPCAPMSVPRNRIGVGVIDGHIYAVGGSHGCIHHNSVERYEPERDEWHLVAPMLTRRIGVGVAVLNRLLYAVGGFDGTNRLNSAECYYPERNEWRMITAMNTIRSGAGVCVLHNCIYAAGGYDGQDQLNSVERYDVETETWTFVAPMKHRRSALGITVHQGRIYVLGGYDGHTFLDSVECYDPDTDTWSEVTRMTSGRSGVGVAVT
Excerpt: One model for the NRF2-Keap1 interaction is through two binding sites in the Neh2 domain on NRF2. The two sites are referred to as the DLG binding motif (latch domain, uM affinity) and the ETGE binding motif (hinge domain, nM affinity). The Keap1 protein consists of an N-terminal region (NTR), a broad complex, tramtrack, and brick a′ brac domain (BTB), an intervening region (IVR), a double glycine repeat domain (DGR or Kelch), and a C-terminal region. The DLG and ETGE motifs of NRF2's Neh2 domain bind to the Kelch domain of Keap1 at different affinities. In the Keap1 Kelch fluorescence polarization (FP) assay, a TAMRA-labeled 16 mer peptide (AFFAQLQLDEETGEFL) containing the ETGE motif of NRF2 and the Kelch domain (321-609) of Keap1 is used. The assay determines if a compound interferes with the binding between Keap1 […] and the TAMRA-labeled peptide. Binding of TAMRA-labeled NRF2 peptide to Keap1 (321-609) results in a high FP signal. If a compound interferes with the binding between the peptide and the protein, it will cause the assay signal to decrease. Thus, assay signal is inversely proportional to binding inhibition.
100 nl of 100× compound dose response curves (serial 3-fold dilutions) in DMSO are stamped using an Echo liquid handling system (Labcyte) into 384-well low volume black assay plates (Greiner, #784076), with DMSO in columns 6 and 18. The top concentration of compound is located in columns 1 and 13. Keap1 (321-609) is diluted to 40 nM (2×) in 1× assay buffer (50 mM Tris, pH 8.0, 100 mM NaCl, 5 mM MgCl2, 1 mM DTT, 2 mM CHAPS, and 0.005% BSA) and 5 ul is added using a Multidrop Combi (Thermo Electron Corporation) equipped with a metal tip dispenser to all wells of the compound plate, except column 18. Column 18 receives only 5 ul of assay buffer. Immediately, 5 uL of 16 nM (2×) of Tamra labeled peptide (AFFAQLQLDEETGEFL, 21st Century Biochemicals) is added to all wells of the plate. The plates are spun at 500 rpm for 1 min, incubated for 1 hr at room temperature, and read on an Analyst GT (Molecular Devices) equipped with excitation (530/25 nm) and emission (580/10 nm) filters designed for Tamra probes. A 561 nm dichroic mirror is also used in the Analyst. The final assay concentrations of Keap1 (321-609) and Tamra labeled peptide are 20 nM and 8 nM, respectively. Fluorescence measurements, represented as mP, are used in the transformation of the data. Compound activity is calculated based on percent inhibition, normalized against controls in the assay (Control 1 contains the Tamra peptide and Keap1 (321-609) together (0% response) and control 2 contains the Tamra peptide alone (100% response)). Data analysis is handled using the software package Abase XE (Surrey, United Kingdom. The % inhibition values are calculated by the equation: 100−(100*((compound response-average control 2)/(average control 1−average control 2))). For calculation of pIC50s, Abase XE uses a four parameter equation.

IC50 (NRF2/Keap1) | IC50 (Keap1/NRF2) | Structure (SMILES) | EC50 ([1]; 48 hours) | EC50 ([1]; Homo sapiens, BEAS-2B, 48 h)
1000 to 10000 nM | 100 to 1000 nM | CCCCC1CCc2cnn([C@@H]3CCC[C@@H](c4cccc(-n5ncc(C(=O)O)c5C5CC5)c4)C3)c21 (stereo in doubt) [Example 37, 1-(3-((1,3-cis)-3-(6-Butyl-5,6-dihydrocyclopenta[c]pyrazol-1(4H)-yl)cyclohexyl)phenyl)-5-cyclopropyl-1H-pyrazole-4-carboxylic Acid] | 1000 to 10000 nM | –
1000 to 10000 nM | 100 to 1000 nM | CC1CCc2cnn([C@@H]3CCC[C@H](c4cccc(-n5ncc(C(=O)O)c5C5CC5)c4)C3)c21 (mixture of isomers) [Example 14, 5-Cyclopropyl-1-{3-[(cis)-3-(6-methyl-5,6-dihydro-4H-cyclopentapyrazol-1-yl)-cyclohexyl]-phenyl}-1H-pyrazole-4-carboxylic Acid] | – | 1000 to 10000 nM
10000 to 100000 nM | 100 to 1000 nM | O=C(O)c1cnn(-c2cccc(C3CCC(n4ncc5c4CCC5)C3)c2)c1C1CC1 (mixture of isomers) [Example 10, 1-[3-(3-{1H,4H,5H,6H-cyclopenta[c]pyrazol-1-yl}cyclopentyl)phenyl]-5-cyclopropyl-1H-pyrazole-4-carboxylic Acid] | – | 1000 to 10000 nM
1000 to 10000 nM | 100 to 1000 nM | CN(C)C(=O)[C@H]1CCC[C@@H](c2cccc(-n3ncc(C(=O)O)c3C3CC3)c2)C1 (racemic) [Example 1, 5-Cyclopropyl-1-{3-[3-(dimethylcarbamoyl)cyclohexyl]phenyl}-1H-pyrazole-4-carboxylic Acid] | – | 1000 to 10000 nM
1000 to 10000 nM | 100 to 1000 nM | CCCC1CCCCC1N(C)C(=O)C1CCCC(c2cccc(-n3ncc(C(=O)O)c3C3CC3)c2)C1 (stereo not drawn) [Example 22, 5-Cyclopropyl-1-(3-(3-(methyl(2-propylcyclohexyl)carbamoyl)cyclohexyl)phenyl)-1H-pyrazole-4-carboxylic Acid] | – | 1000 to 10000 nM
1000 to 10000 nM | 100 to 1000 nM | O=C(O)c1cnn(-c2cccc(C3CCCC(n4ncc5c4CCCCC5)C3)c2)c1C1CC1 (racemic) [Example 9, 1-[3-(3-{1H,4H,5H,6H,7H,8H-cyclohepta[c]pyrazol-1-yl}cyclohexyl)phenyl]-5-cyclopropyl-1H-pyrazole-4-carboxylic Acid] | – | 1000 to 10000 nM
1000 to 10000 nM | 100 to 1000 nM | CC1(C)CCc2cnn([C@H]3CCC[C@@H](c4cccc(-n5ncc(C(=O)O)c5C5CC5)c4)C3)c21 (racemic) [Example 24, 5-Cyclopropyl-1-(3-(-3-(6,6-dimethyl-5,6-dihydrocyclopenta[c]pyrazol-1(4H)-yl)cyclohexyl)phenyl)-1H-pyrazole-4-carboxylic Acid] | – | 1000 to 10000 nM
1000 to 10000 nM | 100 to 1000 nM | CC1CCN(C(=O)C2CCCC(c3cccc(-n4ncc(C(=O)O)c4C4CC4)c3)C2)C1 (racemic) [Example 25, 5-Cyclopropyl-1-{3-[3-(3-methyl-pyrrolidine-1-carbonyl)-cyclohexyl]-phenyl}-1H-pyrazole-4-carboxylic Acid] | – | 1000 to 10000 nM
1000 to 10000 nM | 100 to 1000 nM | CN(C(=O)C1CCCC(c2cccc(-n3ncc(C(=O)O)c3C3CC3)c2)C1)C1CCCCC1 (stereo not drawn) [Example 21, 1-(3-(3-(Cyclohexyl(methyl)carbamoyl)cyclohexyl)phenyl)-5-cyclopropyl-1H-pyrazole-4-carboxylic Acid] | – | 1000 to 10000 nM
1000 to 10000 nM | 100 to 1000 nM | O=C(O)c1cnn(-c2cccc(C3CCCC(C(=O)N4CCCCCC4)C3)c2)c1C1CC1 (stereo not drawn) [Example 20, 1-(3-(3-(Azepane-1-carbonyl)cyclohexyl)phenyl)-5-cyclopropyl-1H-pyrazole-4-carboxylic Acid] | – | 1000 to 10000 nM
1000 to 10000 nM | 100 to 1000 nM | O=C(O)c1cnn(-c2cccc(C3CCCC(C(=O)N4CCCC45CCCCC5)C3)c2)c1C1CC1 (racemic) [Example 7, 1-[3-(3-{1-Azaspiro[4.5]decane-1-carbonyl}cyclohexyl)phenyl]-5-cyclopropyl-1H-pyrazole-4-carboxylic Acid] | – | 1000 to 10000 nM
1000 to 10000 nM | 100 to 1000 nM | O=C(O)c1cnn(-c2cccc([C@H]3CCC[C@@H](C(=O)N4CCCCC4)C3)c2)c1C1CC1 (racemic) [Example 3, 5-Cyclopropyl-1-{3-[3-(piperidine-1-carbonyl)cyclohexyl]phenyl}-1H-pyrazole-4-carboxylic Acid] | – | 1000 to 10000 nM
